In patent US8017725B2, “Use of heparin-binding domain of fibronectin for diagnosis and treatment of cancer” (Novartis Forschungesstiftung Zweigniederlassung Friedrich …, priority 2001, dated 2011):

Key:
T98G glioblastoma cells [1] = experiment: Adhesion assay (attachment and spreading on coated ECM substrata); type: cell-based, human
Description: (§1) 60-well microtiter plates (Nunc) were coated with 10 μg/ml ECM molecules giving rise to 1 μg/cm^2 (fibronectin and tenascin-C) and 4 μg/cm^2 (FNIII13) for 1 h at 37° C. ECM proteins were coated separately, starting with fibronectin, followed by tenascin-C, FNIII13 and BSA. The non-coated plastic surface was blocked with 1% heat-inactivated BSA in PBS giving rise to 10 μg/cm^2 protein. Similarly, mixed substrata of collagen I and laminin 1, respectively with tenascin-C were prepared and tenascin-C was detected by ELISA.
(§2) Efficient fibronectin and tenascin-C coating was determined by ELISA with an anti-fibronectin and anti-tenascin-C antibody (Fischer, D. et al (1995) J Biol Chem 270: 3378-3384), respectively and by PAGE analysis of lysed surface-bound ECM material combined with Coomassie Brilliant Blue staining. Before plating, cells were serum starved for 18 h in DMEM containing 1×ITS (insulin, transferrin, selene) supplement, trypsinised, trypsin was blocked with 100 μg/ml soybean trypsin inhibitor in PBS and, cells were resuspended in serum-free medium and counted. 200-500 cells per well were plated for the indicated time points, fixed by addition of glutaraldehyde (2% final concentration) for 15 minutes and stained with 0.1% crystalviolet in 20% methanol for 30 minutes. Cells were observed under a Nikon microscope (Nikon diaphot) and pictures were taken with a Nikon camera.

tumour cell lines = experiment: Adhesion assay on tumour cell lines; type: cell-based
Description: as §1
as §2, with “camera. […]” for “camera.”

all cell lines tested = experiment: DNA replication assay, all cell lines tested; type: cell-based
Description: (§3) 96-well plates (Falcon) were coated as described above. Cells were serum starved overnight and trypsinised as described. 10^4 cells were transferred onto the coated plates in the presence of the indicated mitogens. 14 h later cells were labelled with radioactive ^3H-thymidine (0.5 μCi/well) for 4 h at 37° C., incorporated ^3H-thymidine was precipitated with 10% TCA and determined with a Beckman scintillation counter after cell lysis in 0.3N NaOH, 2% SDS. For long-term cell proliferation assays 2×10^3 MDA-MB435 cells were plated into ECM-coated 96-well plates in the presence of 10 ng/ml insulin and incubated for the indicated time points in a humidified chamber at 37° C. in a CO^2-incubator. 50% fresh medium with growth factor was added every 24 h. At different time points cells were trypsinised and counted.
In order to address whether tenascin-C alone and in ECM contexts other than fibronectin might also enhance proliferation, an investigation was carried out into DNA synthesis on a pure tenascin-C substratum where cells remained rounded and, on mixed substrata of collagen I and laminin 1 that contained tenascin-C where cells spread normally. […] To rule out that tenascin-C may shorten S-phase of the cell cycle in tumour cells, DNA synthesis of T98G cells was determined by assay every two hours starting 11 h after plating. […]

[2] = tested on: MDA-MB435 breast carcinoma cells; experiment: Adhesion assay (attachment on coated ECM substrata); type: cell-based, human
Description: as §1, §2

CHO-K1 cells [3] = experiment: DNA replication assay (3H-thymidine incorporation); type: cell-based, Chinese hamster; details: CHO-K1, ITS
Description: as §3
(§4) DNA replication was determined by ^3H-thymidine incorporation and is described as relative increase in cpm over cells plated on fibronectin. Serum starved cells were triggered to enter S-phase by 40 ng/ml PDGF-BB (a), 100 ng/ml insulin (b) and ITS (c).

CHO-B2 cells [4] = experiment: DNA replication assay (3H-thymidine incorporation); type: cell-based, Chinese hamster; details: CHO-B2, ITS
Description: as §3, §4

CHO-B2α27 cells [5] = experiment: DNA replication assay (3H-thymidine incorporation); type: cell-based, Chinese hamster; details: CHO-B2α27, ITS
Description: as §3, §4

CHO-K1 cells [6] = experiment: Adhesion assay (attachment on coated ECM substrata); type: cell-based, Chinese hamster; details: CHO-K1, 20 h adhesion, ITS
Description: as §1, §2
(§5) The inventors tested whether expression of integrins capable of binding to fibronectin influences tenascin-C-induced compromised attachment on fibronectin. CHO-K1 cells (which express moderate levels of α5β1 (Bauer, J. S. et al (1992) J Cell Biol 116: 477-487)) were compared for levels of adhesion on fibronectin and other ECM substrates with that of cells that either express essentially no fibronectin binding integrins (CHO-B2), or overexpress α5β1 (CHO-B2α27) and αvβ1 (CHO-B2v7), respectively (Schreiner, C. et al (1991) Cancer Res 51: 1738-1740).

CHO-B2 cells [7] = experiment: as above; type: cell-based, Chinese hamster; details: CHO-B2, 20 h adhesion, ITS
Description: as §1, §2, §5

CHO-B2α27 cells [8] = experiment: as above; type: cell-based, Chinese hamster; details: CHO-B2α27, 20 h adhesion, ITS
Description: as §1, §2, §5

T98G glioblastoma cells [9] = experiment: DNA replication assay (3H-thymidine incorporation); type: cell-based, human; details: 40 ng/ml PDGF-BB
Description: as §3
(§6) Cell proliferation and DNA synthesis of MDA-MB435 breast carcinoma, T98G glioblastoma, and Chinese hamster ovary […] cells (CHO) grown on fibronectin, tenascin-C and on mixed fibronectin/tenascin-C substrata was determined. […] After 27 h, 51 h, and 75 h cells were counted. 24% and 33% more cells were counted on fibronectin/tenascin-C than on fibronectin after 51 h and 75 h of culturing, respectively. […]
(§7) DNA replication was determined by ^3H-thymidine incorporation and is described as relative increase in cpm over cells plated on fibronectin. […]

[10] = tested on: MDA-MB435 breast carcinoma cells; experiment: DNA replication assay (3H-thymidine incorporation); type: cell-based, human; details: MDA MB 435, 100 ng/ml insulin
Description: as §3, §6, §7

Question: For “TN: Full length chicken tenascin-C TN260, recombinant, expressed in HEK-293 cells, used as coated substratum”, which “numbers of attached cells” value (T98G glioblastoma cells [1]; 1 h attachment, serum free medium) is on record?
Answer: Its value is 9.3 +/− 0.9 % of cells attached on fibronectin.

Question: What about the “numbers of attached cells” value (T98G glioblastoma cells [1]; 20 h adhesion, 40 ng/ml PDGF-BB) of the same substance?
Answer: Its value is 14.6 +/− 0.4 % of cells attached on fibronectin.

Question: What about the “cells attached on tenascin-C” value (tumour cell lines; 1 h after plating, all cell lines tested) of the same substance?
Answer: Its value is “less than 10%”.

Question: And the “blocking of cell attachment on fibronectin” value (tumour cell lines; molar ratio of tenascin-C to fibronectin of 1:8)?
Answer: The value was “blocked cell attachment on fibronectin as efficiently as in an equimolar ratio”.

Question: What about the “DNA replication indices increase on pure tenascin-C” value (all cell lines tested) of the same substance?
Answer: The value was no more than 11 fold.

Question: And the “numbers of attached cells” value ([2]; MDA MB 435, 1 h attachment, serum free medium)?
Answer: The value was 8.2 +/− 3.9 % of cells attached on fibronectin.

Question: And the “numbers of attached cells” value ([2]; MDA MB 435, 20 h adhesion, 100 ng/ml insulin)?
Answer: The value was 4.0 +/− 0.2 % of cells attached on fibronectin.

Question: And the “DNA replication by 3H-thymidine incorporation” value (CHO-K1 cells [3])?
Answer: The value was 5.9 +/− 1.7 relative increase in cpm over cells plated on fibronectin.

Question: What about the “DNA replication by 3H-thymidine incorporation” value (CHO-B2 cells [4]) of the same substance?
Answer: Its value is 7.1 +/− 0.2 relative increase in cpm over cells plated on fibronectin.

Question: And the “DNA replication by 3H-thymidine incorporation” value (CHO-B2α27 cells [5])?
Answer: The value was 11 +/− 3.9 relative increase in cpm over cells plated on fibronectin.

Question: And the “numbers of attached cells” value (CHO-K1 cells [6])?
Answer: Its value is 4.7 +/− 0.2 % of cells attached on fibronectin.

Question: What about the “numbers of attached cells” value (CHO-B2 cells [7]) of the same substance?
Answer: Its value is 8.0 +/− 2.9 % of cells attached on fibronectin.

Question: And the “numbers of attached cells” value (CHO-B2α27 cells [8])?
Answer: The value was 4.3 +/− 0.7 % of cells attached on fibronectin.

Question: What about the “DNA replication by 3H-thymidine incorporation” value (T98G glioblastoma cells [9]) of the same substance?
Answer: The value was 3.0 +/− 0.9 relative increase in cpm over cells plated on fibronectin.

Question: And the “DNA replication by 3H-thymidine incorporation” value [10]?
Answer: Its value is 2.7 +/− 0.6 relative increase in cpm over cells plated on fibronectin.
